# From PubChem BioAssay (NCI)
# “And” between values parts separate entries of the source, which are not always exact repeats. Identical values can stand only once.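 In this assay, cells in 96-well plates receive the compound at five concentrations for 48 hours. Endpoints are linearly interpolated between the surrounding concentrations. GI50 marks 50% less growth. TGI is the concentration that stops growth completely.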 *1 amine or outer side, *2 acyl side, *3 side chain or, on linkers, in order; H or OH if unused. Where a SMILES comes first, the peptide text is derived from it. Bridges are numbered along the chain shown (N, C = ends). [ ]: non-standard residue; d: D form. The star is where a group is joined. Phe(3-Me) = Cc1cccc(C[C@H](N)C(=O)O)c1; NH(4-Cl-2-F-phenyl) = Fc1cc(Cl)ccc1N*; Pro(4R-Me) = C[C@H]1CN[C@H](C(=O)O)C1; Propanoyl(3-NMe2) = CN(C)CCC(=O)*; Hyp = O=C(O)[C@@H]1C[C@@H](O)CN1; aThr = C[C@H](O)[C@H](N)C(=O)O; Pip = O=C(O)[C@@H]1CCCCN1; CO = O=C([*:1])[*:2]
# How the values were obtained:
# Assay in all cases: DTP human tumour cell line panel, 48 h
# HCT-116 colon = tested on: HCT-116 colon
# LOX IMVI melanoma = tested on: LOX IMVI melanoma
# HL-60(TB) leukemia = tested on: HL-60(TB) leukemia
# MDA-MB-435 = tested on: MDA-MB-435
# OVCAR-8 ovarian = tested on: OVCAR-8 ovarian
# NCI-H460 lung = tested on: NCI-H460 lung
# SK-MEL-5 melanoma = tested on: SK-MEL-5 melanoma
# IGROV1 ovarian = tested on: IGROV1 ovarian
# CCRF-CEM leukemia = tested on: CCRF-CEM leukemia
# SW-620 colon = tested on: SW-620 colon
SMILES,GI50 (HCT-116 colon) [nM],TGI (HCT-116 colon),GI50 (LOX IMVI melanoma) [nM],TGI (LOX IMVI melanoma),GI50 (HL-60(TB) leukemia) [nM],TGI (HL-60(TB) leukemia) [µM],GI50 (MDA-MB-435) [nM],TGI (MDA-MB-435),GI50 (OVCAR-8 ovarian) [nM],TGI (OVCAR-8 ovarian) [µM],GI50 (NCI-H460 lung) [nM],TGI (NCI-H460 lung) [µM],GI50 (SK-MEL-5 melanoma) [nM],TGI (SK-MEL-5 melanoma),GI50 (IGROV1 ovarian) [nM],TGI (IGROV1 ovarian),GI50 (CCRF-CEM leukemia) [nM],TGI (CCRF-CEM leukemia) [µM],GI50 (SW-620 colon) [nM],TGI (SW-620 colon)
COc1ccc(CNc2nc(NCc3ccc(OC)cc3)c3n[nH]c(C(C)C)c3n2)cc1,4060,22.6 µM,4450,17.3 µM,2750,6.44,3170,11.1 µM,12500,53.6,2980,31.8,1570,3.01 µM,4380,13.7 µM,3730,15.4,3270,> 100 µM
CC(=O)Nc1sc2c(c1-c1nc3ccccc3s1)CNC2,1990,12.5 µM,1670,6.74 µM,2840,11.6,3480,12.5 µM,2450,> 50,1940,10.2,5230,11.2 µM,2070,11.9 µM,3740,22.2,2330,48.3 µM
Nc1nc2c(c3cnccc13)C(c1cccc(Cl)c1)Cc1cnccc1-2 (stereo not given),448,11.3 µM,373,11.2 µM,278,5.27,210,1.46 µM,601,22.5,385,11.6,398,2.04 µM,644,15.3 µM,429,19.5,455,17.6 µM
O=C(O)/C=C\C(=O)Nc1ccc2c(c1)C(=O)c1cc(F)ccc1-2,–,> 100 µM,–,> 100 µM,–,> 100,–,> 100 µM,–,> 100,–,> 100,–,> 100 µM,–,> 100 µM,–,> 100,–,> 100 µM
O=C1c2cccnc2C(=O)c2c1c(C(=O)OCCN1CCOCC1)c1ccccn21,41.7,1.49 µM,< 10,0.384 µM,78.9,3.21,38.7,0.65 µM,< 16.8,9.21,< 10,1.06,18.9,0.135 µM,40.6,9.91 µM,126,6.8,< 10,3.23 µM
CC[C@@]1(O)C(=O)OCc2c1cc1n(c2=O)Cc2c-1nc1ccccc1c2/C=N/OC(C)(C)C,< 10,13.4 µM,< 10,0.133 µM,< 10,< 0.0125,30.1,3.92 µM,< 11.8,> 42.1,< 10,1.95,< 10,0.102 µM,39.1,5.26 µM,< 10,> 100,< 11,14.2 µM
Cc1cccc(C[C@H](NC(=O)Nc2ccc(Cl)cc2F)C(=O)N[C@@H]2C(=O)N3C[C@H](OC(=O)CCN(C)C)C[C@H]3C(=O)N3CCCC[C@H]3C(=O)N[C@@H](C)C(=O)N3C[C@H](C)C[C@H]3C(=O)O[C@H]2C)c1 ({NH(4-Cl-2-F-phenyl)-CO}-[Phe(3-Me)][aThr][Hyp](Propanoyl(3-NMe2))[Pip]A[Pro(4R-Me)]; ester 2-C),408,1.62 µM,683,2.2 µM,354,1.9,432,1.65 µM,431,12.9,386,1.82,460,1.62 µM,940,2.46 µM,470,7.81,600,2.94 µM
COc1ccc(-c2nocc2-c2cc(OC)c(OC)c(OC)c2)cc1,41.2,13.1 µM,212,> 74.5 µM,38.7,0.886,23.9,0.13 µM,228,> 100,48,15.5,73.6,4.45 µM,346,> 100 µM,189,> 100,46.6,> 100 µM
CCN(CC)CC(O)C1CCC(c2ccccc2)CC1 (stereo not given),–,> 100 µM,–,42.1 µM,–,58,–,40.2 µM,–,59.7,–,85.5,–,30.4 µM,–,> 100 µM,–,82.6,–,80.9 µM
C=C1N(C)c2ccc(Cl)cc2C1(C)C,3520,17.5 µM,6980,55.5 µM,2330,8.85,3700,23.5 µM,9670,> 100,4940,36.1,4320,15 µM,8350,65.4 µM,12900,69.2,5800,> 100 µM
O=[N+]([O-])c1ccc(-c2cn(-c3ccc(Cl)cc3)cn2)cc1,–,> 100 µM,–,> 100 µM,–,> 100,–,> 100 µM,–,> 100,–,> 100,–,> 100 µM,–,> 100 µM,–,> 100,–,> 100 µM
O=C(CCl)Nc1ccc2c(c1)C(=O)c1ccc(NC(=O)CCl)cc1C2=O,199,0.768 µM,93.5,0.229 µM,454,3.08,395,1.81 µM,439,> 100,387,1.53,214,0.502 µM,260,1.15 µM,127,0.896,198,0.493 µM
COc1ccc(Nc2ncccc2C(=O)NCc2cn(Cc3cccc(Oc4ccccc4)c3)nn2)cc1,4170,> 100 µM,3600,> 100 µM,2660,> 100,1710,4.34 µM,3720,> 100,3520,> 100,2900,> 100 µM,5890,> 100 µM,3800,> 100,3860,> 100 µM
O=S(=O)(NCCCNc1cc(-c2cn(-c3ccccc3)nc2-c2cccc(O)c2)ccn1)c1ccc(Cl)cc1,1570,3.29 µM,1420,2.77 µM,2090,5.61,1640,3.2 µM,2110,6.06,1680,3.32,1230,2.55 µM,2960,13.2 µM,2430,7.85,1620,3.54 µM
Cc1ccccc1/C=C1\CN(C(=O)OC(C)(C)C)C/C(=C\c2ccccc2C)C1=O,1900,4.57 µM,1880,3.6 µM,2470,8.8,2510,5.45 µM,3490,> 100,2120,4.27,2120,4.49 µM,2260,6.26 µM,2900,12.6,2990,7.07 µM
Cc1nc2cc(N)c(Cl)cc2[nH]1,–,> 100 µM,–,> 100 µM,–,> 100,–,> 100 µM,–,> 100,–,> 100,–,> 100 µM,–,> 100 µM,–,> 100,–,> 100 µM
CCc1ccc(Nc2cc(C)nc3nc(C)nn23)cc1,80100,> 100 µM,46000,> 100 µM,> 100000,> 100,53800,> 100 µM,79800,> 100,71100,> 100,32900,> 100 µM,61200,> 100 µM,48100,> 100,> 100000,> 100 µM
Cc1ccc(NC(=O)c2nc(S(C)=O)oc2-c2ccc(F)cc2)cc1Nc1nccc(-c2cccnc2)n1 (stereo not given),1880,3.57 µM,1220,2.65 µM,3060,10.9,2130,4.77 µM,2230,4.64,2090,4.06,1840,3.59 µM,1890,3.85 µM,1580,6.83,2100,4.01 µM
Nc1c(C(=O)Nc2ccccc2)sc2nc3c(cc12)CCCC3,490,> 100 µM,908,> 100 µM,299,20.8,172,0.415 µM,1800,> 100,458,> 75.9,365,2.24 µM,2640,> 100 µM,374,> 46.5,403,> 100 µM
COC(=O)C1C2CCCN2OC1(C)CO (stereo not given),–,> 100 µM,–,> 100 µM,–,> 100,–,> 100 µM,–,> 100,–,> 100,–,> 100 µM,–,> 100 µM,–,> 100,–,> 100 µM
S=C(N/N=C(/c1ccccc1)c1ccccn1)Nc1cccc(Cl)c1,4.75,1.91 µM and 1.76 µM,729,3.72 µM and > 34 µM,15.2,0.162,1090,2.95 µM and 4.56 µM,25.8,2.87,612,4.69,358,1.46 µM and 4.08 µM,280,2.03 µM and 6.68 µM,< 1,0.0383,44.4,2.88 µM and 5.77 µM
O=C1OC2C(O)C(=O)OC2C1O (stereo not given),–,> 100 µM,–,> 100 µM,–,> 100,–,> 100 µM,–,> 100,–,> 100,–,> 100 µM,–,> 100 µM,–,> 100,–,> 100 µM
COc1cc(NC(N)=NCCC(C)(C)c2ccc(C(F)(F)F)cc2)ncc1C#N,1510,2.9 µM,1580,2.92 µM,278,0.868,1780,3.25 µM,1700,3.18,1830,3.55,1580,2.94 µM,1680,3.39 µM,2060,4.93,2010,4.14 µM
CNC1C(OC2C(OC3C(O)C(O)C(O)C(O)C3O)OC(C)C2(O)CO)OC(CO)C(O)C1O (stereo not given) (tested in a mixture with another compound),–,> 100 µM,–,> 100 µM,–,> 100,–,> 100 µM,–,> 100,–,> 100,–,> 100 µM,–,> 100 µM,–,> 100,–,> 100 µM
Cc1nn(-c2ccc(Br)cc2)c(C)c1CC(=O)c1cc(O)ccc1O,12600,> 50 µM,4130,13.9 µM,11900,> 50,6920,> 50 µM,8090,23.2,8340,19.3,6840,20.3 µM,17200,> 50 µM,19000,> 50,14400,> 50 µM
CCCCCCCCCC(CCCC(O)CC(=O)O)OC1OC(COC2OC(C)C(O)C(O)C2O)C(O)C(O)C1OC1OC(CO)C(O)C(O)C1OC1OC(C)C(O)C(O)C1O (stereo not given),> 40000,> 40 µM,> 40000,> 40 µM,> 40000,> 40,> 40000,> 40 µM,> 40000,> 40,> 40000,> 40,> 40000,> 40 µM,> 40000,> 40 µM,> 40000,> 40,> 40000,> 40 µM
